Square brackets hold non-standard residues; d marks the D form. Ends that are not written are not given here. Peptide text beside a SMILES is read from it. Hyp = O=C(O)[C@@H]1C[C@@H](O)CN1
Columns and labels:
[1] = tested on: Primary BMMs; experiment: Cytotoxicity experiment, CCK-8 kit; assay type: cell-based, mouse; details: 0, 1, 10, 100, 200, 500, 800, 1000, and 1500 μg/mL, 24 and 48 hours
Procedure: (§1) 1) Bilateral femurs and tibias of wild-type female mice were aseptically isolated, and bone marrow cells were obtained by repeatedly washing bone marrow cavities with culture medium. After culturing in α-MEM complete medium containing M-CSF (30 ng/mL) for 24-hour, nonadherent cells were suctioned, centrifuged, and resuspended, and then cultured in the α-MEM complete medium containing M-CSF (30 ng/mL) for 3 days to obtain adherent mouse primary bone marrow mononuclear macrophages (osteoclast precursor cells). Osteoclast precursor cells were conducted by M-CSF (50 ng/mL) and RANKL (100 ng/mL) to obtain osteoclast and identified by TRAP staining (FIG. 1A). The expression of the collagen receptor OSCAR on osteoclast precursor cells and osteoclasts were determined by immunofluorescence (FIG. 1B) and Western blot (FIG. 1C).
1) Primary BMMs were cultured in vitro according to the method in Part 1 above, the A1-1/A1-4-1 collagen peptide was taken as an example for carrying out the cytotoxicity experiment. Primary BMMs were treated with different concentrations (0, 1, 10, 100, 200, 500, 800, 1000, and 1500 μg/mL) of collagen peptide for 24 and 48 hours, and the cytotoxicity was determined by CCK-8 kit.

[2] = target: T1, mOSCAR (Mus musculus, UniProt Q8VBT3); experiment: Solid-phase binding experiment of collagen peptides with mOSCAR-His fusion protein; details: peptide coated on 96-well plate, mOSCAR-His 37° C. 3 hours, absorbance at 492 nm
T1 construct: The extracellular domains of the mOSCAR were amplified by RT-PCR and inserted with expression vectors of His tag fusion proteins; made in house; host or cells: HEK293T cells
T1 sequence (Q8VBT3 19-231 limits assumed): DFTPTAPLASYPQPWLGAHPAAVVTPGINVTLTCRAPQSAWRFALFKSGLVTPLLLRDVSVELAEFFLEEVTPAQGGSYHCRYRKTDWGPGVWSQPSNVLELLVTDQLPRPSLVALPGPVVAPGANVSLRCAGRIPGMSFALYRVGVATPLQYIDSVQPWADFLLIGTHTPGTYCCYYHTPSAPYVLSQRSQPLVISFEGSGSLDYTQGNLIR
Procedure: 1) The extracellular domains of the mOSCAR were amplified by RT-PCR and inserted with expression vectors of His tag fusion proteins. Then, the constructed vectors were transfected into HEK293T cells for expression, and mOSCAR-His fusion protein were purified by ion-exchange chromatography and molecular sieve chromatography.
2) Collagen peptides were dissolved with 10 mM acetic acid and wrapped to a 96-well microtitration plate overnight. After being sealed in phosphate buffer containing bovine serum albumin at room temperature for 1 hour, mOSCAR-His fusion protein was added and incubated at 37° C. for 3 hours. Then, horseradish peroxidase-labeled goat anti-mouse IgG antibody that capable of reacting specifically with His added and incubated at room temperature for 1 hour. The binding mOSCAR-His fusion protein was detected by O-phenylenediamine dihydrochloride. The reaction was terminated by 3 M H2SO4, and the absorbance at 492 nm was measured. It was confirmed that the type II collagen peptide (OSC^pep) and 4 segments of type I collagen peptides (A1-1, A1-2-1, A1-4-1, A1-5-3) could bind to the mOSCAR (FIG. 5).

[3] = tested on: Primary pre-osteoblasts; experiment: Osteoblast differentiation, ALP staining; assay type: cell-based, mouse
Procedure: 2) After skulls of the wild-type mice were aseptically isolated, cells were isolated by collagenase digestion and nucleated cells were obtained by density gradient centrifugation. Cells were induced to differentiate into osteoblasts by medium containing 10 mM β-sodium glycerophosphate, 50 μM vitamin C and 10^−7 M dexamethasone and identified by ALP staining (FIG. 1D). The expression of the collagen receptor OSCAR on pre-osteoblasts induced for 0th, 7th, 14th, 21st, and 35th day and MLO-Y4 bone cell lines was determined by immunohistochemistry (FIG. 1E) and Western blot (FIG. 1F).
4) Primary pre-osteoblasts were cultured in vitro according to the method in Part 1 above. Then, cells were treated with different concentrations of 5 segments of collagen peptides, and induced to differentiate into osteoblast by 10 mM […], 50 μM vitamin C and 10^−7 M dexamethasone at the same time. The effect of the collagen peptides on osteoblast differentiation was verified by ALP staining. It was confirmed that the bone remodeling regulatory peptides could inhibit osteoblast differentiation and bone formation at low concentration and promote osteoblast differentiation and bone formation at high concentration (FIG. 6C). […]

[4] = tested on: osteoclasts; experiment: Bone resorption of osteoclasts in peptide-primary BMMs-bone slice culture system, WGA staining; assay type: cell-based, mouse
Description: 3) Different concentrations of bone remodeling regulatory peptides-primary BMMs-bone slice culture system was constructed by using the above-mentioned method, and the cells in the system were induced to differentiate into osteoclasts by M-CSF and RANKL at the same time. The effect of collagen peptides on bone resorption of osteoclasts was verified by wheat germ agglutinin (WGA) staining. It was confirmed that all of the bone remodeling regulatory peptides could promote bone resorption of osteoclasts at low concentration and inhibit bone resorption of osteoclasts at high concentration (FIG. 6B).

[5] = tested on: Primary BMMs; experiment: Osteoclast differentiation induced by M-CSF and RANKL, TRAP staining; assay type: cell-based, mouse
Procedure: as §1
2) Primary BMMs were treated with different concentrations of 5 collagen peptides, and induced to differentiate into osteoclasts by M-CSF and RANKL. The effect of different concentrations of collagen peptides on osteoclast differentiation was verified by TRAP staining. It was confirmed that all of the bone remodeling regulatory peptides could promote osteoclast differentiation at low concentration and inhibit osteoclast differentiation at high concentration (FIG. 6A).

Row | Compound | cytotoxicity [1] | binding to the mOSCAR [2] | further results
1 | C[C@H](NC(=O)CN)C(=O)N1C[C@H](O)C[C@H]1C(=O)NCC(=O)N1CCC[C@H]1C(=O)N[C@@H](CCC(N)=O)C(=O)NCC(=O)N[C@@H](Cc1ccccc1)C(=O)N[C@@H](CCC(N)=O)C(=O)O [A1-1, Gly-Ala-Pro-Gly-Pro-Gln-Gly-Phe-Gln] (H-GA[Hyp]GPQGFQ-OH) | no toxic effect | could bind | –
2 | C[C@H](NC(=O)[C@H](Cc1ccccc1)NC(=O)CNC(=O)[C@H](C)NC(=O)[C@@H]1CCCN1C(=O)CNC(=O)[C@@H]1C[C@@H](O)CN1C(=O)[C@@H]1CCCN1C(=O)CN)C(=O)O [A1-4-1, Gly-Pro-Pro-Gly-Pro-Ala-Gly-Phe-Ala] (H-GP[Hyp]GPAGFA-OH) | no toxic effect | could bind | –
3 | Gly-Ala-Pro-Gly-Ala-Pro-Gly-Ser-Gln (GA[Hyp]GA[Hyp]GSQ) [A1-2-1] | – | could bind | –
4 | Gly-Ala-Pro-Gly-Pro-Ala-Gly-Phe-Ala (GA[Hyp]GPAGFA) [OSC^pep] | – | could bind | concentration that inhibits osteoblast differentiation and bone formation [3]: < 8000 µg/mL; concentration that promotes osteoblast differentiation and bone formation [3]: ≥ 8000 µg/mL; concentration that inhibits bone resorption ([4]; high concentration): ≥ 8000 µg/mL; concentration that promotes bone resorption ([4]; low concentration): < 8000 µg/mL; concentration that inhibits osteoclast differentiation ([5]; high concentration): ≥ 8000 µg/mL; concentration that promotes osteoclast differentiation ([5]; low concentration): < 8000 µg/mL
5 | Gly-Pro-Pro-Gly-Ala-Thr-Gly-Phe-Pro (GP[Hyp]GATGFP) [A1-5-3] | – | could bind | –

From patent US20220275025A1, “BONE REMODELING REGULATORY PEPTIDES AND APPLICATION THEREOF” (THE SECOND XIANGYA HOSPITAL OF CENTRAL SOUTH UNIVERSITY, priority 2019, published 2022)
